For orientation: IC50 means the concentration that inhibits the measured activity by half. As a reminder, the ED50 is the midpoint of the dose-response relation.

Results on 2 compounds are retold here after patent US9738656B2, “Pyranodipyridine compound” (Eisai R&D Management Co., Ltd., priority 2015, dated 2017).

The test system of one data set is AMPA receptor. Put plainly: AMPA-induced intraneuronal calcium entry-suppressing action (primary culture of embryonic rat cerebral cortex neurons, Fura 2-AM). The class given is cell-based. The note with it: AMPA stimulation, intracellular calcium increase, read-out: IC50 for AMPA inhibition. An excerpt: The present inventors conducted the following tests, in order to confirm the effects of the compounds of the present invention. With regard to the AMPA receptor inhibitory action of the compounds, AMPA-induced intraneuronal calcium entry-suppressing action was examined using a primary culture system of embryonic rat cerebral cortex neurons. With regard to the anticonvulsant action of the compounds, 6 Hz (44 mA) stimulation-induced convulsions known as a treatment-resistant convulsion model were used. AMPA inhibitor-induced central nervous system depressant action such as loss of coordination was evaluated using a rotarod performance test.
AMPA-Induced Intraneuronal Calcium Entry-Suppressing Action
<Culture conditions> Whole fetuses were removed from the uteri of Wistar rats at embryonic day 18 (Charles River Japan) anesthetized with isoflurane. Whole brains were removed from the whole fetuses, and the cerebral cortex was separated in Leibovitz's L-15 medium or Hanks balanced salt solution containing 20% fetal bovine serum. The resulting material was treated with trypsin/DNase solution at 37° C. for 45 to 60 minutes. After the serum was added to stop the trypsin reaction, the resulting material was centrifuged at 1200 to 1500 rpm for 3 to 5 minutes. After the supernatant was removed, Neurobasal medium (containing 2% B-27 supplement and the like; hereinafter “Neurobasal medium”) was added, and the cells were uniformly dispersed by gently pipetting. The cell suspension was slightly stirred, and then filtered through a nylon mesh filter. Viable cells were counted using a hemocytometer, and diluted with Neurobasal medium to 8 to 10×10^5 cells/mL. The cells were seeded into 96 well plates at 100 μL per well and cultured in a CO2 incubator (5% CO2, 37° C.). The medium was replaced after 24 hours, and neurons cultured for 7 to 21 days were used.
On the day of the assay, the medium was removed and replaced with a calcium measurement solution containing 5 to 10 μmol/L of Fura 2-AM (140 mmol/L sodium chloride, 5 mmol/L potassium chloride, 2 mmol/L magnesium chloride, 3 mmol/L calcium chloride, 24 mmol/L D(+)-glucose, 10 mmol/L HEPES, 1 μmol/L MK-801, pH 7.4), and the cells were treated in a CO2 incubator (5% CO2, 37° C.) for 1 to 2 hours. The calcium measurement solution containing the Fura-2 AM solution was subsequently removed, and the neurons in each well were washed twice with the calcium measurement solution for each well, and then 50 μL of the calcium measurement solution was added to each well. Subsequently, 50 μL of a test compound or medium prepared at a concentration 3-fold higher than the final concentration was added, and the cells were pre-treated for about 15 minutes. The plates were subsequently placed on the Fluorescence Drug Screening System 6000 (Hamamatsu Photonics K.K.). The cells were stimulated by adding to each well 50 μL of an AMPA stimulating solution prepared to 3.3 μmol/L with the calcium measurement solution. Changes in calcium concentration were measured as the changes in fluorescence intensity at excitation wavelengths of 340 nm and 380 nm (measurement wavelength: 540 nm). The rate of change of the intracellular calcium concentration was calculated according to the following equation: Rate of increase of the intracellular calcium concentration (% control)=(Tpost−Tpre)/(Cpost−Cpre)×100
wherein Tpost: the proportion of fluorescence of sample wells after stimulation; Tpro: the proportion of fluorescence of sample wells before stimulation; Cpost: the proportion of fluorescence of control wells after stimulation; and Cpre: the proportion of fluorescence of control wells before stimulation.
The IC50 value of the test compound for AMPA inhibition was determined from the rates of increase of the intracellular calcium concentration at various concentrations.
For orientation: A change in cytosolic calcium serves as a functional read-out for many receptors and channels.

Data set [1] concerns male ddY mice. In words: Rotarod performance test-1. The class given is in vivo. The note with it: oral, 25 minutes after administration, dose at which time of fall is reduced to 50% of medium control. How it is done:
(§1) With regard to the AMPA receptor inhibitory action of the compounds, AMPA-induced intraneuronal calcium entry-suppressing action was examined using a primary culture system of embryonic rat cerebral cortex neurons. […] AMPA inhibitor-induced central nervous system depressant action such as loss of coordination was evaluated using a rotarod performance test.
Rotarod Performance Test-1
(§2) A rotarod (MK-660C from Muromachi Kikai Co., Ltd.) was used for the measurement. The rod (bar) was controlled to be gradually accelerated from its stationary state to a speed of 40 rotations/minute after 180 seconds. As the animals, 5 or 6-week-old male ddY mice (Japan SLC, Inc.) were used. On the day on which the test was performed, the mice were trained under the above-described measurement conditions, and mice that were able to ride on the rod for 1 minute or longer with good reproducibility were selected and subjected to the test.
Each of the compounds was dissolved in a medium (a solution prepared by adding DMSO to a 0.5% methylcellulose solution to a final concentration of 10%. As required, 0.5 to 5% of 1 mol/L hydrochloric acid and 5% Cremophor™ were added), and then orally administered to the mice in optimum four doses between 0.5 to 10 mg/kg. As the control, only the medium was orally administered. After a lapse of 25 minutes from the oral administration of each compound, the mice were subjected to the rotarod performance test. Five to twenty-five mice were used for each compound group.
In general terms: Falling from the rotarod earlier than controls is read as motor impairment.

For data set [2], the system named is male ddY mice. Put plainly: Murine 6 Hz convulsion models (6 Hz, 44 mA corneal stimulation). The class given is in vivo. The note with it: mice; for ED50: Mus musculus, 25 min, 6 Hz 44 mA stimulation-induced seizure, oral, after rotarod test-1 (25 minutes after administration), read-out: ED50; for Therapeutic Index: TD50/ED50 (rotarod test-1 / 6 Hz convulsion model). Here is the method:
as §1
Immediately after the rotarod performance test-1 was completed, the cornea was stimulated by passing an electrical current (6 Hz, 44 mA, 0.2-millisecond pulse, for 3 seconds) from a copper electrode moistened with physiological saline, and the presence or absence of the development of a seizure was observed. The seizure was determined by the development of akinesia, jaw and forelimb clonus, whisker tremors, and Straub tail.
Further, for the purpose of evaluating the safety margin of each of the compounds of the present invention, the therapeutic index (TD50/ED50) was calculated by comparing the seizure inhibitory action (ED50) in the 6 Hz convulsion models and the neurotoxic action (TD50) in the rotarod performance test-1.

For data set [3], the system named is male ddY mice. In words: Rotarod performance test-2. The format is in vivo. The note with it: for Time of Fall: mice, oral at the ED50 dose of the 6 Hz model, 25 minutes after administration; for Ratio Relative to the Control Compound: time of fall relative to control compound. How it is done:
Rotarod Performance Test-2
as §2
As the control, only the medium was orally administered. After a lapse of 25 minutes from the oral administration of each compound, the mice were subjected to the rotarod performance test. Five or six mice were used for each compound group. For each compound, the time until the mice fell from the rotarod was measured.

Bounds are passed on as bounds.

For the compound `N#Cc1nccnc1-c1cc2c(n(-c3ccsc3)c1=O)COc1cccnc1-2` [Example 8, 3-(8-oxo-7-(thiophen-3-yl)-7,8-dihydro-6H-pyrano[3,2-b:5,4-b′]dipyridin-9-yl)pyrazine-2-carbonitrile], in the data set on AMPA receptor, the IC50 was 70.1 nM. Further, the TD50 in the data set on male ddY mice [1] was >8 mg/kg, p.o. Further, in the data set with male ddY mice [2], the ED50 was 4.85 mg/kg and the “Therapeutic Index” value is reported as over 1.65. In the data set with male ddY mice [3] (Table 3), the “Time of Fall” value was 65.8 s and the “Ratio Relative to the Control Compound” value is 5.4.
As for `Cc1ncc(-n2c3c(cc(-c4cccc(F)c4C#N)c2=O)-c2ncccc2OC3)cn1` [Example 21, 2-fluoro-6-(7-(2-methylpyrimidin-5-yl)-8-oxo-7,8-dihydro-6H-pyrano[3,2-b:5,4-b′]dipyridin-9-yl)benzonitrile], the IC50 in the data set with AMPA receptor turned out to be 44.3 nM. Besides, the TD50 with male ddY mice [1] was 5.30 mg/kg, p.o. Further, in the data set with male ddY mice [2], the ED50 is 2.5 mg/kg and the “Therapeutic Index” value is recorded as 2.12. In addition, in the data set on male ddY mice [3] (Table 4), the “Time of Fall” value was determined as 118.7 s and the “Ratio Relative to the Control Compound” value stood at 8.3.
